In patent publication US9642889B2, “Macrocyclic inhibitors of Flaviviridae viruses” (Selcia Limited, priority 2012, dated 2017):
pEC50, pIC50: −log10 of the molar value. Like-named read-outs stand apart in the source and are kept apart here.

Legend:
[1] = tested on: Huh-7 HCV replicon cells (1b replicon); assay: anti-HCV activity in Huh-7 cell line harboring a HCV replicon (luciferase readout); assay type: cell-based; details: for pEC50: inhibition of viral replication, Huh-7 HCV replicon cells, 3 days, read-out: EC50; for inhibition at 1 µM: Huh-7, read-out: Replicon 1b % inhibition at 1 μM, 1b replicon, 1 μM compound; for Replicon 1b % inhibition at 1 μM: 1b replicon, 1 μM compound
cyclophilin A = cyclophilin A (Homo sapiens, UniProt P62937); assay: Cyclophilin A TR-FRET competitive binding assay; details: competition with CsA-Cy5 for His-tagged CypA, two-hour incubation
Procedure: Cyclophilin A TR-FRET Competitive Binding Assay
Inhibitor potency was measured using a competitive binding assay with a time-resolved fluorescence resonance energy transfer (TR-FRET) readout. […] An IC50 value was calculated using a four-parameter logistic fit.

Chain of cyclophilin A (P62937 whole entry, species assumed): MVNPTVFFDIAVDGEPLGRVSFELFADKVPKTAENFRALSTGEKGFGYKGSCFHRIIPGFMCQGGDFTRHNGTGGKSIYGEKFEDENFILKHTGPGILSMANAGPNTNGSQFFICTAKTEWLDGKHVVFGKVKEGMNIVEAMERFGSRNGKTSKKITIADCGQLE

Compound | pEC50 ([1]; Hepatitis C virus, Huh-7, 72 h) | inhibition at 1 µM ([1]; Hepatitis C virus) [%] | pIC50 (cyclophilin A) | Replicon 1b % inhibition at 1 μM ([1]; 1 µM) [%] | pEC50 [1] | Replicon 1b % inhibition at 1 μM [1] [%]
CC(C)[C@@H]1NCCC/C=C/c2cc3cc(ccc3cn2)[C@@H](C)OC(=O)[C@@H]2CCCN(N2)C(=O)[C@H](C)NC1=O [Compound 20] | > 6.00 | 88 | 6.00 to 7.00 |  |  | 
CCC(=O)O[C@H]1CC[C@]2(/C=C/c3ccc4ccc(nc4c3)[C@@H](C)NC(=O)[C@@H]3CCCN(N3)C(=O)[C@H](C)NC(=O)[C@H](C(C)C)OC2=O)CC1 [Compound 111] | > 6.00 | 99 | > 7.00 |  |  | 
CC(F)[C@@H]1OC(=O)C(C)(C)/C=C/c2ccc3ccc(nc3c2)[C@@H](C)NC(=O)[C@@H]2CCCN(N2)C(=O)[C@H](C)NC1=O (stereo partly drawn) [Compound 68] | > 6.00 | 93 | > 7.00 |  |  | 
CC(C)[C@@H]1OC(=O)[C@@](C)(COC(F)F)/C=C/c2ccc3ccc(nc3c2)[C@@H](C)NC(=O)[C@@H]2CCCN(N2)C(=O)[C@H](C)NC1=O [Compound 55] | > 6.00 | 100 | > 7.00 |  |  | 
CC1NC(=O)C(C2CC2)OC(=O)C2(C=Cc3ccc4ccc(nc4c3)C(C)NC(=O)C3CCCN(N3)C1=O)CCC(O)C2 (single isomer, unassigned) [Compound 105] |  |  | 6.00 to 7.00 | 2 | 5.00 to 5.96 | 
C[C@@H]1NC(=O)[C@H](C2CCC2)OC(=O)C(C)(C)/C=C/c2ccc3ccc(nc3c2)[C@@H](C)NC(=O)[C@@H]2CCCN(N2)C1=O [Compound 52] | > 6.00 | 100 | > 7.00 |  |  | 
CC(C)[C@@H]1OC(=O)[C@H](C)[C@H](O)CCCCc2cccc(c2)[C@@H](C)NC(=O)[C@@H]2CCCN(N2)C(=O)[C@H](C)NC1=O [Compound 10, (2R,5S,11S,14S,17R,18R)-18-Hydroxy-14-isopropyl-2,11,17-trimethyl-15-oxa-3,9,12,28-tetraaza-tricyclo[21.3.1.1*5,9*]octacosa-1(26),23(27),24-triene-4,10,13,16-tetraone] | > 6.00 | 92 | > 7.00 |  |  | 
C[C@@H]1NC(=O)[C@H](C(C)(C)C)OC(=O)C(C)(C)/C=C/c2ccc3ccc(nc3c2)[C@@H](C)NC(=O)[C@@H]2CCCN(N2)C1=O [Compound 70] | > 6.00 | 57 | 5.00 to 6.00 |  |  | 
CC(C)[C@@H]1OCCC/C=C/c2cc3cc(ccc3cn2)[C@@H](C)OC(=O)[C@@H]2CCCN(N2)C(=O)[C@H](C)NC1=O [Compound 23] | > 6.00 | 97 | > 7.00 |  |  | 
CC(C)[C@@H]1NS(=O)(=O)C/C=C/c2cc3cc(ccc3cn2)[C@@H](C)OC(=O)[C@@H]2CCCN(N2)C(=O)[C@H](C)NC1=O [Compound 21] | > 6.00 | 71 | 6.00 to 7.00 |  |  | 
CC1/C=C/c2ccc3ccc(nc3c2)[C@@H](C)NC(=O)[C@@H]2CCCN(N2)C(=O)[C@H](C)NC(=O)[C@H](C(C)C)OC1 (single isomer, unassigned) [Compound 35] | > 6.00 | 88 | > 7.00 |  |  | 
CON=C1CCC2(/C=C/c3ccc4ccc(nc4c3)[C@@H](C)NC(=O)[C@@H]3CCCN(N3)C(=O)[C@H](C)NC(=O)[C@H](C(C)C)OC2=O)CC1 (stereo partly drawn) [Compound 83] | > 6.00 | 100 | > 7.00 |  |  | 
C[C@@H]1NC(=O)[C@H](C2CC2)OC(=O)C2(/C=C/c3ccc4ccc(nc4c3)[C@@H](C)NC(=O)[C@@H]3CCCN(N3)C1=O)CCC(O)CC2 (stereo partly drawn) [Compound 66] | > 6.00 | 97 | > 7.00 |  |  | 
CC(C)[C@@H]1OC(=O)C2(/C=C/c3ccc4ccc(nc4c3)[C@@H](C)NC(=O)[C@@H]3CCCN(N3)C(=O)[C@H](C)NC1=O)COCCO2 (single isomer, unassigned) [Compound 43] |  |  | > 7.00 |  | > 6.00 | 99
CCCC(=O)O[C@H]1CC[C@]2(/C=C/c3ccc4ccc(nc4c3)[C@@H](C)NC(=O)[C@@H]3CCCN(N3)C(=O)[C@H](C)NC(=O)[C@H](C(C)C)OC2=O)CC1 [Compound 82] | > 6.00 | 99 | > 7.00 |  |  | 
CC(CC[C@@H]1C/C=C/c2cc3cc(ccc3cn2)[C@@H](C)NC(=O)[C@@H]2CCCN(N2)C(=O)[C@H](C)NC(=O)[C@H](C(C)C)OC1=O)=NOCCN1CCOCC1 (mixture of isomers) [Compound 15] | > 6.00 | 98 | > 7.00 |  |  | 
CC(C)[C@@H]1OC(=O)C2(/C=C/c3ccc4ccc(nc4c3)[C@@H](C)NC(=O)[C@@H]3CCCN(N3)C(=O)[C@H](C)NC1=O)CCC(C)(O)CC2 (stereo partly drawn) [Compound 89] | > 6.00 | 82 | > 7.00 |  |  | 
CC(C)[C@@H]1OC(=O)C/C=C/c2cc3cc(ccc3cn2)[C@@H](C)NC(=O)[C@@H]2CCCN(N2)C(=O)[C@H](C)NC1=O [Compound 3] | > 6.00 | 89 | > 7.00 |  |  | 
CO[C@@H]1CC/C=C/c2cccc(c2)[C@@H](C)NC(=O)[C@@H]2CCCN(N2)C(=O)[C@H](C)NC(=O)[C@H](C(C)C)OC(=O)[C@@H]1C [Compound 1] | > 6.00 | 97 | > 7.00 |  |  | 

Compound | pEC50 ([1]; Hepatitis C virus, Huh-7, 72 h) | inhibition at 1 µM ([1]; Hepatitis C virus) [%] | pIC50 (cyclophilin A) | Replicon 1b % inhibition at 1 μM ([1]; 1 µM) [%] | pEC50 [1] | Replicon 1b % inhibition at 1 μM [1] [%]
CC(C)C(=O)O[C@H]1CC[C@@]2(/C=C/c3ccc4ccc(nc4c3)[C@@H](C)NC(=O)[C@@H]3CCCN(N3)C(=O)[C@H](C)NC(=O)[C@H](C(C)C)OC2=O)CC1 [Compound 80] | > 6.00 | 99 | > 7.00 |  |  | 
CC(C)[C@@H]1OC(=O)[C@]2(/C=C/c3ccc4ccc(nc4c3)[C@@H](C)NC(=O)[C@@H]3CCCN(N3)C(=O)[C@H](C)NC1=O)CCOC(C)(C)C2 [Compound 91] | > 6.00 | 100 | > 7.00 |  |  | 
CC(C)[C@@H]1OC(=O)[C@@]2(/C=C/c3ccc4ccc(nc4c3)[C@@H](C)NC(=O)[C@@H]3CCCN(N3)C(=O)[C@H](C)NC1=O)CCOC(C)(C)C2 [Compound 90] | > 6.00 | 99 | > 7.00 |  |  | 
COCC1NC(=O)C(C(C)C)OC(=O)C(C)(C)C=Cc2ccc3ccc(nc3c2)C(C)NC(=O)C2CCCN(N2)C1=O (single isomer, unassigned) [Compound 39] | 5.00 to 5.96 | 16 | 6.00 to 7.00 |  |  | 
CCC[C@@H]1CCCc2cc3cc(ccc3cn2)[C@@H](C)NC(=O)[C@@H]2CCCN(N2)C(=O)[C@H](C)NC(=O)[C@H](C(C)C)OC1=O [Compound 9] | > 6.00 | 100 | > 7.00 |  |  | 
CC1/C=C/c2ccc3ccc(nc3c2)[C@@H](C)OC(=O)[C@@H]2CCCN(N2)C(=O)[C@H](C)NC(=O)[C@H](C(C)C)OC1 (single isomer, unassigned) [Compound 27] | > 6.00 | 92 | > 7.00 |  |  | 
C[C@@H]1NC(=O)[C@H](C)OC(=O)C(C)(C)/C=C/c2ccc3ccc(nc3c2)[C@@H](C)NC(=O)[C@@H]2CCCN(N2)C1=O [Compound 61] | 5.00 to 5.96 | 46 | 6.00 to 7.00 |  |  | 
CC(C)[C@@H]1OC(=O)[C@]2(/C=C/c3ccc4ccc(nc4c3)[C@@H](C)N(C)C(=O)[C@@H]3CCCN(N3)C(=O)[C@H](C)NC1=O)CC[C@H](O)CC2 [Compound 42] | > 6.00 | 96 | > 7.00 |  |  | 
C[C@@H]1NC(=O)[C@H](CC(F)F)OC(=O)C(C)(C)/C=C/c2ccc3ccc(nc3c2)[C@@H](C)NC(=O)[C@@H]2CCCN(N2)C1=O [Compound 62] | > 6.00 | 84 | > 7.00 |  |  | 
CC(C)[C@@H]1OC(=O)C2(/C=C/c3ccc4ccc(nc4c3)[C@@H](C)NC(=O)[C@@H]3CCCN(N3)C(=O)[C@H](C)NC1=O)COC(=O)OC2 [Compound 98] | > 6.00 | 90 | > 7.00 |  |  | 
CC(C)[C@H]1C(=O)N[C@@H](C)C(=O)N2CCC[C@H](N2)C(=O)O[C@H](C)c2ccc3ccc(cc3n2)/C=C/C(C)(C)CN1C [Compound 26] | > 6.00 | 68 | 6.00 to 7.00 |  |  | 
CC(C)[C@@H]1OC(=O)C2(/C=C/c3ccc4ccc(nc4c3)[C@@H](C)NC(=O)[C@@H]3CCCN(N3)C(=O)[C@H](C)NC1=O)COC(C)(C)CO2 (single isomer, unassigned) [Compound 100] |  |  | > 7.00 |  | > 6.00 | 100
CC1/C=C/c2cc3cc(ccc3cn2)[C@@H](C)NC(=O)[C@@H]2CCCN(N2)C(=O)[C@H](C)NC(=O)[C@H](C(C)C)OC(=O)C1C (stereo partly drawn) [Compound 11] | > 6.00 | 96 | > 7.00 |  |  | 
CC[C@H](C)[C@@H]1OC(=O)C2(/C=C/c3ccc4ccc(nc4c3)[C@@H](C)NC(=O)[C@@H]3CCCN(N3)C(=O)[C@H](C)NC1=O)COCOC2 [Compound 65] | > 6.00 | 99 | > 7.00 |  |  | 
C[C@@H]1NC(=O)[C@H](C2CC2)OC(=O)C2(/C=C/c3ccc4ccc(nc4c3)[C@@H](C)NC(=O)[C@@H]3CCCN(N3)C1=O)CCC(O)C2 (stereo partly drawn) [Compound 102] | 5.00 to 5.96 | 13 | > 7.00 |  |  | 
CO[C@@H](C)[C@@H]1OC(=O)C(C)(C)/C=C/c2ccc3ccc(nc3c2)[C@@H](C)NC(=O)[C@@H]2CCCN(N2)C(=O)[C@H](C)NC1=O [Compound 54] | > 6.00 | 77 | 6.00 to 7.00 |  |  | 
CC(=O)CC[C@@H]1C/C=C/c2cc3cc(ccc3cn2)[C@@H](C)NC(=O)[C@@H]2CCCN(N2)C(=O)[C@H](C)NC(=O)[C@H](C(C)C)OC1=O (mixture of isomers) [Compound 14] | > 6.00 | 100 | > 7.00 |  |  | 
CC1/C=C/c2cc3cc(ccc3cn2)[C@@H](C)NC(=O)[C@@H]2CCCN(N2)C(=O)[C@H](C)NC(=O)[C@H](C(C)C)OC1=O (stereo partly drawn) [Compound 5] | > 6.00 | 93 | > 7.00 |  |  | 
